Source: patent US20250215014A1, “KINASE INHIBITORS, PREPARATION METHODS AND USES THEREOF” (InventisBio Co., Ltd., priority 2022, published 2025)

What was measured:
[1] = target: DGKz (Homo sapiens (Human), UniProt Q13574); assay: DGK ADP-Glo Kinase Assay (DGKz); format: biochemical; settings: 5 nM DGKz, 15 uM ATP
Description: (§1) Luminescence was recorded using an Tecan SPARK microplate reader.

[2] = target: DGKa (Homo sapiens (Human), UniProt P23743); assay: DGK ADP-Glo Kinase Assay (DGKa); format: biochemical; settings: 10 nM DGKa, 15 uM ATP
Sequence of DGKa (P23743 whole entry): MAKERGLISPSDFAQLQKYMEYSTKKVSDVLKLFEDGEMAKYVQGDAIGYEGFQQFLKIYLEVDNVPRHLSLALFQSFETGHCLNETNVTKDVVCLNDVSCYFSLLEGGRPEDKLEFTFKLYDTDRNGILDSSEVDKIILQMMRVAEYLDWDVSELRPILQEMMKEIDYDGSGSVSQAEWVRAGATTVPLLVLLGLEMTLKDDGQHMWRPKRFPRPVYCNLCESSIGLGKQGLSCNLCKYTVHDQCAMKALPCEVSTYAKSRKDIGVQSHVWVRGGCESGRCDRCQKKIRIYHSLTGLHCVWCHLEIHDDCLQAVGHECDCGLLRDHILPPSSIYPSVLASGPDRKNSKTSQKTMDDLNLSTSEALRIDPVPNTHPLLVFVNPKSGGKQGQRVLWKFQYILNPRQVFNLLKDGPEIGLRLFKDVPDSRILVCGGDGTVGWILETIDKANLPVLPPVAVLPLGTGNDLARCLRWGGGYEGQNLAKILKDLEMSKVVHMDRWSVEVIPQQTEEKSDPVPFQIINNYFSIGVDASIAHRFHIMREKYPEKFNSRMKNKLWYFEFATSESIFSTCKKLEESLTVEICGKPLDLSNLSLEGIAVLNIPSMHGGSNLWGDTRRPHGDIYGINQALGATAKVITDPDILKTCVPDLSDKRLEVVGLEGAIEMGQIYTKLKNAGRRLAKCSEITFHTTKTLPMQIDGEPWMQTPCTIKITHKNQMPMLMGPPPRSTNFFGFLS
Description: as §1

[3] = tested on: Jurkat cells; assay: Jurkat IL-2 Assay; format: cell-based; settings: Homo sapiens, anti-CD3/CD28 antibody, IL-2 level
Description: Jurkat cells (ATCC) were cultured in RPMI-1640 medium supplemented with 10% FBS. In a 96-well plate, 250,000 cells in 130 uL were added to each assay well. Ten microliter compound solution (5 uM to 2.3 nM, 8 points with 3-fold dilution) were added to cells in each well and incubated for 60 minutes at 37° C. Then 10 uL anti-CD3/CD28 antibody (Catalog #10991, Stemcell) were added and incubated overnight at 37° C. After the incubation, 16 uL supernatants were transferred into a new 384-well white assay plate for cytokine analysis. IL-2 was quantified using Human IL-2 kit (Catalog #62HIL02PEG, Cisbio) as described in the manufacturer manual.
X is log of compound concentration, Y is the IL-2 concentration, increasing as X increases.

Sequence of DGKz (Q13574 whole entry): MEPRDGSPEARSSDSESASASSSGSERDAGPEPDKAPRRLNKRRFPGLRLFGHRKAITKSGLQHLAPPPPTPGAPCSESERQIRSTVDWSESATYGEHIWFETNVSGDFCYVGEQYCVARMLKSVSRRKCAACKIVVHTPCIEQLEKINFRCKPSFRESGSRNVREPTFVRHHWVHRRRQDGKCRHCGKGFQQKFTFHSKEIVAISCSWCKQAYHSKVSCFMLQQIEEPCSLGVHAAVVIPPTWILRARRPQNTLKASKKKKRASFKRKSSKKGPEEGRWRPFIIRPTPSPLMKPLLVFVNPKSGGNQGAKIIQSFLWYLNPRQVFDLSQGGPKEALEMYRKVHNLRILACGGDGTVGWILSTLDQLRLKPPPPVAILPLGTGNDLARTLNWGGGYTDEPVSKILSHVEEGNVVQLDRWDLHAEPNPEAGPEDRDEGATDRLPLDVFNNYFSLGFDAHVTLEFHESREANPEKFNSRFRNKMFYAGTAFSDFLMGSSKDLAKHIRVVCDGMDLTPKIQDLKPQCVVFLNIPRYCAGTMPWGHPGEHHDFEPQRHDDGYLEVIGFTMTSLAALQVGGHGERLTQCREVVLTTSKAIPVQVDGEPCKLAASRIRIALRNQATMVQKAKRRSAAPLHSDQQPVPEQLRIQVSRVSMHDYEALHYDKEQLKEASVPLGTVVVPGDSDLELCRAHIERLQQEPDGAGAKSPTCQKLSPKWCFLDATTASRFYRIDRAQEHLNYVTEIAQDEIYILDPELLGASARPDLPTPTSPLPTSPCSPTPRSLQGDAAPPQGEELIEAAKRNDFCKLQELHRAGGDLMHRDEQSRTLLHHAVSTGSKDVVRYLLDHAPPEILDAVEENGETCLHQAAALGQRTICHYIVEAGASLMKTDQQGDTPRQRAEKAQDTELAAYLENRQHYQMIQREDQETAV

CC[C@H]1CN([C@@H]2CCCCc3cc(C(F)(F)F)ccc32)[C@H](CC)CN1c1nc(=O)n(C)c2ccc(C#N)nc12 [Compound 45]
IC50 [1]: < 100 nM
IC50 [2]: 100 to 1000 nM
EC50 [3]: 500 to 1000 nM
